Test system: HCT 116 cells transfected with a luciferase reporter under the control of an HIF-responsive sequence
Assay: HIF-luciferase assay
Assay type: cell-based
Details: Homo sapiens; HCT 116 HIF-luciferase reporter cells, hypoxia chamber (1% O2), 24 h, luminescence
Method: HCT 116 cells were transfected in a stable manner with a plasmid which contained a luciferase reporter under the control of an HIF-responsive sequence. These cells were sown in microtitre plates [20 000 cells/cavity in RPMI 1640 medium with 10% foetal calf serum (FCS) and 100 μg/ml of hygromycin]. Incubation was carried out overnight under standard conditions (5% CO2, 21% O2, 37° C., moistened). The following morning the cells were incubated with various concentrations of the test substances (0-10 μmol/l) in a hypoxia chamber (1% O2). After 24 h, Bright Glo reagent (Promega, Wisconsin, USA) was added in accordance with the manufacturer's instructions, and after 5 min the luminescence was measured. Cells which were incubated under normoxia served as background controls.

IC50	SMILES
8 nM	Cc1cc(-c2nc(-c3ccc(OC(F)(F)F)cc3)no2)cn1Cc1ccc(NCCN2CCC(O)CC2)nc1 [Example 16]
5 nM	Cc1cc(-c2nc(-c3ccc(OC(F)(F)F)cc3)no2)nn1Cc1cccc(OCCN(C)C)c1 [Example 124, N,N-Dimethyl-2-{3-[(5-methyl-3-{3-[4-(trifluoromethoxy)phenyl]-1,2,4-oxadiazol-5-yl}-1H-pyrazol-1-yl)methyl]phenoxy}ethanamine]
10 nM	Cc1cc(-c2nc(-c3ccc(OC(F)(F)F)cc3)no2)nn1Cc1cccc(OCCN2CCCC2)c1 [Example 57, 5-(5-Methyl-1-{3-[2-(pyrrolidin-1-yl)ethoxy]benzyl}-1H-pyrazol-3-yl)-3-[4-(trifluoromethoxy)-phenyl]-1,2,4-oxadiazole]
1 nM	Cc1cc(-c2nc(-c3ccc(OC(F)(F)F)cc3)no2)nn1Cc1cccc(OCCN2CCOCC2)c1 [Example 123, 4-(2-{3-[(5-Methyl-3-{3-[4-(trifluoromethoxy)phenyl]-1,2,4-oxadiazol-5-yl}-1H-pyrazol-1-yl)-methyl]phenoxy}ethyl)morpholine]
10 nM	Cc1cc(-c2nc(-c3ccc(OC(F)(F)F)cc3)no2)nn1Cc1cccc(C(=O)N(C)CCN(C)C)c1 [Example 48, N-[2-(Dimethylamino)ethyl]-N-methyl-3-[(5-methyl-3-{3-[4-(trifluoromethoxy)phenyl]-1,2,4-oxa-diazol-5-yl}-1H-pyrazol-1-yl)methyl]benzenecarboxamide]
6 nM	Cc1cc(-c2nc(-c3ccc(C(C)(C)C)cc3)no2)cn1Cc1ccc(NCCN2CCCC2)nc1 [Example 71]
9 nM	Cc1cc(-c2nc(-c3ccc(OC(F)(F)F)cc3)no2)nn1Cc1ccc(NCCN2CCOCC2)cc1 [Example 60, 4-[(5-Methyl-3-{3-[4-(trifluoromethoxy)phenyl]-1,2,4-oxadiazol-5-yl}-1H-pyrazol-1-yl)methyl]-N-[2-(morpholin-4-yl)ethyl]aniline]
10 nM	Cc1cc(-c2nc(-c3ccc(S(=O)(=O)C(F)(F)F)cc3)no2)nn1Cc1ccc(NCCN2CCOCC2)nc1 [Example 22]
10 nM	Cc1cc(-c2nc(-c3ccc(OC(F)(F)F)cc3)no2)nn1Cc1ccc(SCCN2CCCC2)cc1 [Example 67, 5-[5-Methyl-1-(4-{[2-(pyrrolidin-1-yl)ethyl]sulphanyl}benzyl)-1H-pyrazol-3-yl]-3-[4-(trifluoromethoxy)phenyl]-1,2,4-oxadiazole]
8 nM	Cc1cc(-c2nc(-c3ccc(OC(F)(F)F)cc3)no2)nn1Cc1ccc(NCCCN2CCCC2=O)nc1 [Example 74]
7 nM	Cc1cc(-c2nc(-c3ccc(C(C)(C)C(F)(F)F)cc3)no2)nn1Cc1ccc(NCCN2CCCC2)nc1 [Example 14, 5-[(5-Methyl-3-{3-[4-(1,1,1-trifluoro-2-methylpropan-2-yl)phenyl]-1,2,4-oxadiazol-5-yl}-1H-pyrazol-1-yl)methyl]-N-[2-(pyrrolidin-1-yl)ethyl]pyridine-2-amine]
3 nM	Cc1cc(-c2nc(-c3ccc(OC(F)(F)F)cc3)no2)nn1Cc1ccc(NCCN2CCC(F)(F)CC2)nc1 [Example 103, N-[2-(4,4-Difluoropiperidin-1-yl)ethyl]-5-[(5-methyl-3-{3-[4-(trifluoromethoxy)phenyl]-1,2,4-oxa-diazol-5-yl}-1H-pyrazol-1-yl)methyl]pyridine-2-amine]
2.5 nM	Cc1cc(-c2nc(-c3ccc(OC(F)(F)F)cc3)no2)nn1Cc1ccc(NCCN2CCS(=O)(=O)CC2)nc1 [Example 102, N-[2-(1,1-Dioxidothiomorpholin-4-yl)ethyl]-5-[(5-methyl-3-{3-[4-(trifluoromethoxy)phenyl]-1,2,4-oxadiazol-5-yl}-1H-pyrazol-1-yl)methyl]pyridine-2-amine]
8 nM	Cc1cc(-c2nc(-c3ccc(OC(F)(F)F)cc3)no2)nn1Cc1ccc(NCCN2CCCC2=O)nc1 [Example 73]
10 nM	Cc1cc(-c2nc(-c3ccc(OC(F)(F)F)cc3)no2)nn1Cc1ccc(NCCN2CCOCC2)nc1 [Example 24]
